Data from PubChem BioAssay (NCI).
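Step 1: Grow cells in 96-well plates. Step 2: Expose to compound for 48 hours at 5 concentrations. Step 3: Interpolate endpoints linearly; if unreached, use highest concentration. TGI: total growth inhibition.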

tested on: IGROV1 ovarian; assay: DTP human tumour cell line panel, 48 h

Row | SMILES | TGI [µM]
1 | COCc1nc2c(OC)c(-c3nc4nc(N5CCN(C)CC5)ccc4[nH]3)cc(OC)c2n1C | > 100
2 | O=C(c1ccco1)N(C(=S)OCCOc1ccccc1)c1ccccc1 | 36.9
3 | N#C[C@@H](c1ccccn1)c1ncccc1[N+](=O)[O-] | > 100
4 | COC(=O)C1=CS/C(=C2\S[C@@H]3[C@H](S2)[C@H]2C=C[C@@H]3C2)S1 | > 100
5 | CC(CC[C@@]1(C)C(=O)CCC2O[C@]21C)[C@H]1C[C@@H](c2ccoc2)OC1=O (stereo partly drawn) | > 100
6 | CN(C(=O)Cc1cccc(N=C=S)c1)[C@H]1CCCC[C@@H]1N1CCCC1 | 28.1
7 | O=C(NC(Cc1ccccc1)(Cc1ccc(O)cn1)C(=O)O)c1ccccc1 (stereo not drawn) | > 100
8 | O=C1c2ccsc2C(=O)c2sc(CO)cc21 | 1.36
9 | N#C/C(=C/NC(N)=S)C(N)=O | > 100
10 | O=C(c1cccs1)N1CCc2ccccc2C1 | > 100
11 | O=c1c2ccccc2nc(Cc2nc(-c3ccc(Cl)cc3)cs2)n1-c1ccc(Cl)cc1 | > 100
12 | CCN(CC)CCSc1c2cc(OC)ccc2nc2ccc(OC)cc12 | 4.11
13 | CCOC(=O)c1ccc(NCc2ccc3oc(=O)c(-c4ccccc4)nc3c2)cc1 | > 100
14 | CCOC(=O)C1C(=O)CC1(C)C (stereo not drawn) | > 10

tested on: M14 melanoma; assay: DTP human tumour cell line panel, 48 h

Row | SMILES | TGI [µM]
15 | Nc1nc(-[n+]2ccc(-c3ccncc3)cc2)nc(Cl)c1Cl | > 100
16 | CC1(C)OC(=O)N(c2ccccc2)C12C=Cc1cc([N+](=O)[O-])ccc1O2 (stereo not drawn) | > 100
17 | O=C1CC(c2cccc([N+](=O)[O-])c2)C2(C(=O)NC(=O)NC2=O)C(c2cccc([N+](=O)[O-])c2)C1 (stereo not drawn) | > 100
18 | Nc1nc(-c2ccccc2)cc(-c2ccc(OCc3ccccc3)cc2O)n1 | > 100
19 | CCCc1c(O)nc(Nc2nc3ccccc3[nH]2)[nH]c1=O | > 100
20 | COC1=C(OC)C(=O)C(Cc2c(C)nc3sccn23)=C(C)C1=O | 36.6
21 | CCOC(=O)Cc1nc2cc(F)c(F)cc2[nH]c1=O | > 100
22 | CCOc1ncn(-c2ccc(NC(=S)NC3OC(CO)C(O)C(O)C3O)cc2)n1 (stereo not drawn) | > 100
23 | Cn1c([C@H](C#N)c2ncccc2[N+](=O)[O-])nc2ccccc21 | > 100
24 | COCc1nc2c(OC)c(-c3nc4nc(N5CCN(C)CC5)ccc4[nH]3)cc(OC)c2n1C | 43.3
25 | O=C(c1ccco1)N(C(=S)OCCOc1ccccc1)c1ccccc1 | 37.3
26 | N#C[C@@H](c1ccccn1)c1ncccc1[N+](=O)[O-] | > 100
27 | COC(=O)C1=CS/C(=C2\S[C@@H]3[C@H](S2)[C@H]2C=C[C@@H]3C2)S1 | > 100
28 | CC(=O)Oc1ccc2cc(-c3ccccc3OC(C)=O)c(=O)oc2c1 | > 100
29 | CC(CC[C@@]1(C)C(=O)CCC2O[C@]21C)[C@H]1C[C@@H](c2ccoc2)OC1=O (stereo partly drawn) | > 100
30 | CN(C(=O)Cc1cccc(N=C=S)c1)[C@H]1CCCC[C@@H]1N1CCCC1 | 41.1
31 | O=C(NC(Cc1ccccc1)(Cc1ccc(O)cn1)C(=O)O)c1ccccc1 (stereo not drawn) | > 100
32 | O=C1c2ccsc2C(=O)c2sc(CO)cc21 | < 0.0154
33 | N#C/C(=C/NC(N)=S)C(N)=O | > 100
34 | O=C(c1cccs1)N1CCc2ccccc2C1 | > 100
35 | O=c1c2ccccc2nc(Cc2nc(-c3ccc(Cl)cc3)cs2)n1-c1ccc(Cl)cc1 | > 100
36 | CCN(CC)CCSc1c2cc(OC)ccc2nc2ccc(OC)cc12 | > 32.3
37 | CCOC(=O)c1ccc(NCc2ccc3oc(=O)c(-c4ccccc4)nc3c2)cc1 | > 100
38 | CCOC(=O)C1C(=O)CC1(C)C (stereo not drawn) | > 10

tested on: MALME-3M melanoma; assay: DTP human tumour cell line panel, 48 h

Row | SMILES | TGI [µM]
39 | C(/C=C/Nc1ccc(Oc2ccccc2)cc1)=Nc1ccc(Oc2ccccc2)cc1 | 33.7
40 | Nc1nc(-[n+]2ccc(-c3ccncc3)cc2)nc(Cl)c1Cl | > 100
41 | O=C1CC(c2cccc([N+](=O)[O-])c2)C2(C(=O)NC(=O)NC2=O)C(c2cccc([N+](=O)[O-])c2)C1 (stereo not drawn) | 61.8
42 | Nc1nc(-c2ccccc2)cc(-c2ccc(OCc3ccccc3)cc2O)n1 | > 100
43 | CCCc1c(O)nc(Nc2nc3ccccc3[nH]2)[nH]c1=O | > 100
44 | COC1=C(OC)C(=O)C(Cc2c(C)nc3sccn23)=C(C)C1=O | 31
45 | CCOC(=O)Cc1nc2cc(F)c(F)cc2[nH]c1=O | > 100
46 | Cn1c([C@H](C#N)c2ncccc2[N+](=O)[O-])nc2ccccc21 | > 100
47 | COCc1nc2c(OC)c(-c3nc4nc(N5CCN(C)CC5)ccc4[nH]3)cc(OC)c2n1C | 35.6
48 | O=C(c1ccco1)N(C(=S)OCCOc1ccccc1)c1ccccc1 | 40
49 | N#C[C@@H](c1ccccn1)c1ncccc1[N+](=O)[O-] | > 100
50 | COC(=O)C1=CS/C(=C2\S[C@@H]3[C@H](S2)[C@H]2C=C[C@@H]3C2)S1 | > 100
51 | CC(=O)Oc1ccc2cc(-c3ccccc3OC(C)=O)c(=O)oc2c1 | > 100
52 | CC(CC[C@@]1(C)C(=O)CCC2O[C@]21C)[C@H]1C[C@@H](c2ccoc2)OC1=O (stereo partly drawn) | 81.3
53 | CN(C(=O)Cc1cccc(N=C=S)c1)[C@H]1CCCC[C@@H]1N1CCCC1 | 40.5
54 | O=C(NC(Cc1ccccc1)(Cc1ccc(O)cn1)C(=O)O)c1ccccc1 (stereo not drawn) | > 100
55 | O=C1c2ccsc2C(=O)c2sc(CO)cc21 | 1.21
56 | O=C(c1cccs1)N1CCc2ccccc2C1 | > 100
57 | O=c1c2ccccc2nc(Cc2nc(-c3ccc(Cl)cc3)cs2)n1-c1ccc(Cl)cc1 | > 100
58 | CCN(CC)CCSc1c2cc(OC)ccc2nc2ccc(OC)cc12 | 7.74
